The source made the active and inactive calls. The rule behind the calls is not given here.
Columns and labels:
3T3-L1 [1] = assay: Cytotoxicity against in mouse 3T3-L1 cells assessed as reduction in cell viability at 100 uM incubated for 24 hrs by MTT assay relative to control; format: cell-based; conditions: 3t3-l1, 24 h
3T3-L1 [2] = assay: Inhibition of preadipocyte differentiation in mouse 3T3-L1 cells assessed as lipid droplet accumulation at 100 uM incubated for 8 days by Oil Red O staining method relative to untreated control; format: functional
3T3-L1 [3] = assay: Inhibition of preadipocyte differentiation in mouse 3T3-L1 cells assessed as lipid droplet accumulation incubated for 8 days by Oil Red O staining method relative to untreated control; format: functional, cell-based; conditions: 3T3-L1, 192 h
3T3-L1 [4] = assay: Anti-adipogenic activity against mouse 3T3-L1 cells assessed as decrease in p-ERK protein expression measured after 8 days by Western blotting analysis relative to control; format: functional, cell-based; conditions: time 8.0 day
3T3-L1 [5] = assay: Anti-adipogenic activity against mouse 3T3-L1 cells assessed as decrease in ERK protein expression measured after 8 days by Western blotting analysis relative to control; format: functional, cell-based; conditions: time 8.0 day
3T3-L1 [6] = assay: Anti-adipogenic activity against mouse 3T3-L1 cells assessed as decrease in p-JNK protein expression measured after 8 days by Western blotting analysis relative to control; format: functional, cell-based; conditions: time 8.0 day
3T3-L1 [7] = assay: Anti-adipogenic activity against mouse 3T3-L1 cells assessed as decrease in JNK protein expression measured after 8 days by Western blotting analysis relative to control; format: functional, cell-based; conditions: time 8.0 day
3T3-L1 [8] = assay: Anti-adipogenic activity against mouse 3T3-L1 cells assessed as decrease in p-P38 protein expression measured after 8 days by Western blotting analysis relative to control; format: functional, cell-based; conditions: time 8.0 day
3T3-L1 [9] = assay: Anti-adipogenic activity against mouse 3T3-L1 cells assessed as decrease in P38 protein expression measured after 8 days by Western blotting analysis relative to control; format: functional, cell-based; conditions: time 8.0 day
3T3-L1 [10] = assay: Anti-adipogenic activity against mouse 3T3-L1 cells assessed as decrease in C/EBPalpha protein expression measured after 8 days by Western blotting analysis relative to control; format: functional, cell-based; conditions: time 8.0 day
3T3-L1 [11] = assay: Anti-adipogenic activity against mouse 3T3-L1 cells assessed as decrease in C/EBPbeta protein expression measured after 8 days by Western blotting analysis relative to control; format: functional, cell-based; conditions: time 8.0 day
3T3-L1 [12] = assay: Anti-adipogenic activity against mouse 3T3-L1 cells assessed as decrease in PPARgamma protein expression measured after 8 days by Western blotting analysis relative to control; format: functional, cell-based; conditions: time 8.0 day
3T3-L1 [13] = assay: Anti-adipogenic activity against mouse 3T3-L1 cells assessed as decrease in GR protein expression measured after 8 days by Western blotting analysis relative to control; format: functional, cell-based; conditions: time 8.0 day

O=C1C[C@@H](c2ccc(O)cc2)Oc2cc(O[C@@H]3O[C@H](CO)[C@@H](O)[C@H](O)[C@H]3O)cc(O)c21 [PRUNIN]
Activity (3T3-L1 [1]): Non-Toxic
Activity (3T3-L1 [2]; time 8.0 day): Active

O=c1ccn([C@@H]2O[C@H](CO)[C@@H](O)[C@H]2O)c(=O)[nH]1 [URIDINE]
Activity (3T3-L1 [1]): Non-Toxic
Activity (3T3-L1 [2]; time 8.0 day): Active

O[C@@H]1[C@@H](O)[C@H](OCc2ccccc2)O[C@H](CO[C@H]2OC[C@H](O)[C@@H](O)[C@@H]2O)[C@H]1O
Activity (3T3-L1 [1]): Non-Toxic
Activity (3T3-L1 [2]; time 8.0 day): Active

O=c1c(O[C@@H]2O[C@H](CO)[C@@H](O)[C@H](O)[C@H]2O)c(-c2ccc(O)cc2)oc2cc(O)cc(O)c12 [ASTRAGALIN]
Activity (3T3-L1 [1]): Non-Toxic
Activity (3T3-L1 [2]; time 8.0 day): Active

C[C@@H]1O[C@@H](OC[C@H]2O[C@@H](Oc3c(-c4ccc(O)cc4)oc4cc(O)cc(O)c4c3=O)[C@H](O)[C@@H](O)[C@@H]2O)[C@H](O)[C@H](O)[C@H]1O [NICOTIFLOROSIDE]
Activity (3T3-L1 [1]): Non-Toxic
Activity (3T3-L1 [2]; time 8.0 day): Active

O=C1C[C@@H](c2ccc(O)cc2)Oc2cc(O)cc(O)c21 [NARINGENIN]
Activity (3T3-L1 [1]): Non-Toxic
Activity (3T3-L1 [2]; time 8 day): 44.21%

NC(=O)[C@H](O)c1ccccc1
Activity (3T3-L1 [1]): Non-Toxic
Activity (3T3-L1 [2]; time 8 day): 12.23%
IC50 (3T3-L1 [3]): 36 µM
Activity (3T3-L1 [4]): Dose-Dependent Effect
Activity (3T3-L1 [5]): Dose-Dependent Effect
Activity (3T3-L1 [6]): Dose-Dependent Effect
Activity (3T3-L1 [7]): Dose-Dependent Effect
Activity (3T3-L1 [8]): Dose-Dependent Effect
Activity (3T3-L1 [9]): Dose-Dependent Effect
Activity (3T3-L1 [10]): Dose-Dependent Effect
Activity (3T3-L1 [11]): Dose-Dependent Effect
Activity (3T3-L1 [12]): Dose-Dependent Effect
Activity (3T3-L1 [13]): Dose-Dependent Effect

O=C(O)[C@H](O[C@@H]1O[C@H](CO)[C@@H](O)[C@H](O)[C@H]1O)c1ccccc1
Activity (3T3-L1 [1]): Non-Toxic
Activity (3T3-L1 [2]; time 8.0 day): Active

NC(=O)[C@H](O[C@@H]1O[C@H](CO[C@@H]2O[C@H](CO)[C@@H](O)[C@H](O)[C@H]2O)[C@@H](O)[C@H](O)[C@H]1O)c1ccccc1
Activity (3T3-L1 [1]): Non-Toxic
Activity (3T3-L1 [2]; time 8.0 day): Active

C[C@@H]1O[C@@H](Oc2c(-c3ccc(O)cc3)oc3cc(O)cc(O)c3c2=O)[C@H](O)[C@H](O)[C@H]1O [AFZELIN]
Activity (3T3-L1 [1]): Non-Toxic
Activity (3T3-L1 [2]; time 8.0 day): Active

NC(=O)[C@H](O[C@@H]1O[C@H](CO)[C@@H](O)[C@H](O)[C@H]1O)c1ccccc1
Activity (3T3-L1 [1]): Non-Toxic
Activity (3T3-L1 [2]; time 8.0 day): Active

O=C(/C=C/c1ccc(O)c(O)c1)O[C@@H]1C[C@](O)(C(=O)O)C[C@@H](O)[C@H]1O [CHLOROGENIC ACID]
Activity (3T3-L1 [1]): Non-Toxic
Activity (3T3-L1 [2]; time 8 day): 58.44%

COc1cc(/C=C/C(=O)O)ccc1O [FERULATE]
Activity (3T3-L1 [1]): Non-Toxic
Activity (3T3-L1 [2]; time 8 day): 58.22%

COC(=O)/C=C/c1ccc(O)c(O)c1 [METHYLCAFFEATE]
Activity (3T3-L1 [1]): Non-Toxic
Activity (3T3-L1 [2]; time 8 day): 34.67%
